In brackets after ≈: the same amount, converted by molar mass. Like-named read-outs stand apart in the source and are kept apart here. Residues, ends and D or L forms follow the SMILES beside them.
Columns and labels:
physchem [1] = assay: physchem
Description: Approximate solubilities of Larazotide acetate Form A in different solvents were determined. Aliquots of the test solvent were added to weighed samples of Larazotide. The samples were sonicated to aid in dissolution. Visual inspection was used to determine if a sample had dissolved. The approximate solubility was calculated from the total amount of solvent added.

[2] = 5% to 95% RH sorption/desorption
Description: Moisture sorption/desorption data were collected on a VTI SGA-100 Vapor Sorption Analyzer. Sorption and desorption data were collected over a range of 5% to 95% relative humidity (RH) at 10% RH intervals under a nitrogen purge. Samples were not dried prior to analysis. Equilibrium criteria used for analysis were less than 0.0100% weight change in five minutes, with a maximum equilibration time of three hours if the weight criterion was not met. Data were not corrected for the initial moisture content of the samples. NaCl and PVP were used as calibration standards.

[3] = Description: The stability of the chloride salt was tested at 25° C. without humidity control (in closed bottles). The stability of the acetate salt was determined at 25° C./60% RH.
physchem [4] = settings: water
Description: Solubilities of Larazotide acetate and the corresponding chloride salt in water were tested at 20° C. after 14 hours of vigorous stirring in the presence of residual solid. Concentrations of peptide are measured by standardized HPLC.

[5] = 40 C/75% RH, 1 and 2 months
Description: An appropriate amount of amorphous larazotide acetate and crystalline larazotide acetate was used for a stability study to evaluate quality parameters (purity, impurities, assay and ID) for these materials under various storage conditions. Data was collected at two time points, namely at 1 month and at 2 months of storage under the conditions tested.
Data was generated for storage of the three larazotide acetate samples stored at 40 C/75% RH. All three samples were analyzed at 1 and 2 months.

[6] = 25° C. without humidity control (closed bottles), timepoint 0
[7] = 25° C. without humidity control (closed bottles), timepoint 1
[8] = 25° C. without humidity control (closed bottles), timepoint 2

SMILES: CC(C)C[C@H](NC(=O)[C@@H](NC(=O)CNC(=O)CN)C(C)C)C(=O)N[C@H](C(=O)N[C@@H](CCC(N)=O)C(=O)N1CCC[C@H]1C(=O)NCC(=O)O)C(C)C [Form A] (H-GGVLVQPG-OH)
- solubility (physchem [1]; (1:1) DCM/MeOH): < 3000 µg/mL
- solubility (physchem [1]; (1:1) Water/ACN): < 3000 µg/mL
- solubility (physchem [1]; (1:1) Water/Dioxane): < 3000 µg/mL
- solubility (physchem [1]; (1:1) Water/MeOH): < 3000 µg/mL
- solubility (physchem [1]; Acetone): < 4000 µg/mL
- solubility (physchem [1]; Acetonitrile (ACN)): < 4000 µg/mL
- solubility (physchem [1]; Dichloromethane (DCM)): < 4000 µg/mL
- solubility (physchem [1]; Dimethyl sulfoxide (DMSO)): < 4000 µg/mL
- solubility (physchem [1]; Dioxane): < 4000 µg/mL
- solubility (physchem [1]; Ethanol (EtOH)): < 4000 µg/mL
- solubility (physchem [1]; Ethyl acetate (EtOAc)): < 4000 µg/mL
- solubility (physchem [1]; Methanol (MeOH)): < 4000 µg/mL
- solubility (physchem [1]; Tetrahydrofuran (THF)): < 4000 µg/mL
- solubility (physchem [1]; Trifluoroethanol (TFE)): 4000 µg/mL (≈ 5.51 mM)
- solubility (physchem [1]; water): 8000 µg/mL (≈ 11 mM)
- solid form by XRPD following the moisture sorption experiment [2]: still Form A

SMILES: CC(C)C[C@H](NC(=O)[C@@H](NC(=O)CNC(=O)CN)C(C)C)C(=O)N[C@H](C(=O)N[C@@H](CCC(N)=O)C(=O)N1CCC[C@H]1C(=O)NCC(=O)O)C(C)C [Larazotide Acetate] (H-GGVLVQPG-OH)
- rate of deamidation ([3]; 25° C./60% RH): about 0.05 %/month
- % HPLC Area (purity) ([3]; 25° C./60% RH, timepoint 0): 98.7%
- Deamidated “Glu” % HPLC area ([3]; 25° C./60% RH, timepoint 0): 0.19%
- % HPLC Area (purity) ([3]; 25° C./60% RH, timepoint 1): 98.4%
- Deamidated “Glu” % HPLC area ([3]; 25° C./60% RH, timepoint 1): 0.22%
- % HPLC Area (purity) ([3]; 25° C./60% RH, timepoint 2): 98.2%
- Deamidated “Glu” % HPLC area ([3]; 25° C./60% RH, timepoint 2): 0.26%
- % HPLC Area (purity) ([3]; 25° C./60% RH, timepoint 3): 97.7%
- Deamidated “Glu” % HPLC area ([3]; 25° C./60% RH, timepoint 3): 0.40%
- % HPLC Area (purity) ([3]; 25° C./60% RH, timepoint 6): 96.1%
- Deamidated “Glu” % HPLC area ([3]; 25° C./60% RH, timepoint 6): 0.60%

SMILES: CC(C)C[C@H](NC(=O)[C@@H](NC(=O)CNC(=O)CN)C(C)C)C(=O)N[C@H](C(=O)N[C@@H](CCC(N)=O)C(=O)N1CCC[C@H]1C(=O)NCC(=O)O)C(C)C [Larazotide Chloride] (H-GGVLVQPG-OH)
- rate of deamidation ([3]; 25° C. without humidity control (closed bottles)): about 1 %/month
- % HPLC Area (purity) [3, 6]: 98.4%
- Deamidated “Glu” % HPLC area [3, 6]: 1.06%
- % HPLC Area (purity) [3, 7]: 97.8%
- Deamidated “Glu” % HPLC area [3, 7]: 1.85%
- % HPLC Area (purity) [3, 8]: 96.1%
- Deamidated “Glu” % HPLC area [3, 8]: 3.02%
- solubility at 14 h (physchem [4]): ≥ 300000 µg/mL

SMILES: CC(C)C[C@H](NC(=O)[C@@H](NC(=O)CNC(=O)CN)C(C)C)C(=O)N[C@H](C(=O)N[C@@H](CCC(N)=O)C(=O)N1CCC[C@H]1C(=O)NCC(=O)O)C(C)C [amorphous larazotide acetate] (H-GGVLVQPG-OH)
- overall rate of degradation [5]: ~10 % per month

Reference: US9051349B2, “Larazotide acetate compositions” (Alba Therapeutics Corp., priority 2007, dated 2015)
